Assays:
[1] = Oral bioavailability in rat; assay type: ADME, organism-based; details: in vivo
[2] = Distribution coefficient, logD of compound; assay type: physicochemical; details: octanol/water
[3] = Oral bioavailability in rhesus monkey; assay type: ADME, organism-based, Macaca mulatta; details: in vivo
[4] = Solubility of the compound at pH 7; assay type: physicochemical; details: buffer
[5] = Solubility of the compound at pH 2; assay type: physicochemical; details: buffer

With `NC(=O)c1cc(-c2ccc(F)cc2)c2ccc(CN3C(=O)CCC3=O)cc2n1` the bioavailability [1] was > 99%, the logD [2] was 2.1 and the bioavailability [3] was > 99%.
For `CC[C@@](O)(c1cn(Cc2ccc3c(-c4ccc(F)cc4)cc(C(N)=O)nc3c2)nn1)C(F)(F)F`, the solubility [4] was < 0.8 µM and the solubility [5] was < 0.8 µM.
